According to ChEMBL document CHEMBL4346757, “Synthesis and biological evaluation of 7-methoxy-1-(3,4,5-trimethoxyphenyl)-4,5-dihydro-2H-benzo[e]indazoles as new colchicine site inhibitors” (Bioorg Med Chem Lett, 2019):

Legend:
Format in all cases: functional
RXF 393 [1] = assay: Growth inhibition of human RXF393 cells assessed as cell growth at 10 uM after 48 hrs by SRB assay relative to control; details: RXF 393, 48 h, read-out: Activity
U-251 = assay: Cytotoxicity against human U251 cells assessed as growth inhibition after 48 hrs by SRB assay; details: U-251, 48 h
RPMI-8226 = assay: Growth inhibition of human RPMI8226 cells assessed as cell growth at 0.01 uM after 48 hrs by SRB assay relative to control; details: RPMI-8226, 48 h, read-out: Activity
T47D = assay: Growth inhibition of human T47D cells assessed as cell growth at 100 uM after 48 hrs by SRB assay relative to control; details: read-out: Activity
PC-3 [2] = assay: Growth inhibition of human PC3 cells assessed as cell growth at 10 uM after 48 hrs by SRB assay relative to control; details: PC-3, 48 h, read-out: Activity
PC-3 [3] = assay: Growth inhibition of human PC3 cells assessed as cell growth at 1 uM after 48 hrs by SRB assay relative to control; details: PC-3, 48 h, read-out: Activity
NCI-H23 = assay: Growth inhibition of human NCI-H23 cells assessed as cell growth at 10 uM after 48 hrs by SRB assay relative to control; details: NCI-H23, 48 h, read-out: Activity
NCI-H460 = assay: Growth inhibition of human NCI-H460 cells assessed as cell growth at 0.1 uM after 48 hrs by SRB assay relative to control; details: NCI-H460, 48 h, read-out: Activity
SK-MEL-2 = assay: Growth inhibition of human SK-MEL-2 cells assessed as cell growth at 100 uM after 48 hrs by SRB assay relative to control; details: SK-MEL-2, 48 h, read-out: Activity
EKVX = assay: Growth inhibition of human EKVX cells assessed as cell growth at 0.01 uM after 48 hrs by SRB assay relative to control; details: read-out: Activity
786-0 = assay: Growth inhibition of human 786-0 cells assessed as cell growth at 100 uM after 48 hrs by SRB assay relative to control; details: 786-0, 48 h, read-out: Activity
CAKI-1 = assay: Growth inhibition of human Caki1 cells assessed as cell growth at 0.1 uM after 48 hrs by SRB assay relative to control; details: CAKI-1, 48 h, read-out: Activity
HT-29 = assay: Growth inhibition of human HT-29 cells assessed as cell growth at 1 uM after 48 hrs by SRB assay relative to control; details: HT-29, 48 h, read-out: Activity
HOP-92 [4] = assay: Growth inhibition of human HOP92 cells assessed as cell growth at 1 uM after 48 hrs by SRB assay relative to control; details: HOP-92, 48 h, read-out: Activity
HCT-116 = assay: Growth inhibition of human HCT116 cells assessed as cell growth at 100 uM after 48 hrs by SRB assay relative to control; details: HCT-116, 48 h, read-out: Activity
MCF7 = assay: Growth inhibition of human MCF7 cells assessed as cell growth at 10 uM after 48 hrs by SRB assay relative to control; details: MCF7, 48 h, read-out: Activity
SR = assay: Growth inhibition of human SR cells assessed as cell growth at 0.1 uM after 48 hrs by SRB assay relative to control; details: read-out: Activity
A549 = assay: Growth inhibition of human A549/ATCC cells assessed as cell growth at 100 uM after 48 hrs by SRB assay relative to control; details: A549, 48 h, read-out: Activity
NCI-H322M = assay: Growth inhibition of human NCI-H322M cells assessed as cell growth at 10 uM after 48 hrs by SRB assay relative to control; details: read-out: Activity
SK-OV-3 = assay: Cytotoxicity against human SKOV3 cells assessed as growth inhibition after 48 hrs by SRB assay; details: SK-OV-3, 48 h
OVCAR-3 = assay: Growth inhibition of human OVCAR3 cells assessed as cell growth at 100 uM after 48 hrs by SRB assay relative to control; details: OVCAR-3, 48 h, read-out: Activity
RXF 393 [5] = assay: Growth inhibition of human RXF393 cells assessed as cell growth at 100 uM after 48 hrs by SRB assay relative to control; details: RXF 393, 48 h, read-out: Activity
A498 = assay: Growth inhibition of human A498 cells assessed as cell growth at 10 uM after 48 hrs by SRB assay relative to control; details: A498, 48 h, read-out: Activity
SK-MEL-5 = assay: Growth inhibition of human SK-MEL-5 cells assessed as cell growth at 0.1 uM after 48 hrs by SRB assay relative to control; details: SK-MEL-5, 48 h, read-out: Activity
BT-549 = assay: Cytotoxicity against human BT549 cells assessed as growth inhibition after 48 hrs by SRB assay; details: BT-549, 48 h
KM12 = assay: Growth inhibition of human KM12 cells assessed as cell growth at 100 uM after 48 hrs by SRB assay relative to control; details: KM12, 48 h, read-out: Activity
IGROV-1 = assay: Growth inhibition of human IGROV1 cells assessed as cell growth at 0.1 uM after 48 hrs by SRB assay relative to control; details: IGROV-1, 48 h, read-out: Activity
MDA-MB-468 = assay: Growth inhibition of human MDA-MB-468 cells assessed as cell growth at 0.01 uM after 48 hrs by SRB assay relative to control; details: MDA-MB-468, 48 h, read-out: Activity
RXF 393 [6] = assay: Growth inhibition of human RXF393 cells assessed as cell growth at 0.1 uM after 48 hrs by SRB assay relative to control; details: RXF 393, 48 h, read-out: Activity
MDA-MB-231 = assay: Cytotoxicity against human MDA-MB-231/ATCC cells assessed as growth inhibition after 48 hrs by SRB assay; details: MDA-MB-231, 48 h
HOP-92 [7] = assay: Growth inhibition of human HOP92 cells assessed as cell growth at 0.01 uM after 48 hrs by SRB assay relative to control; details: HOP-92, 48 h, read-out: Activity
MDA-MB-435 = assay: Growth inhibition of human MDA-MB-435 cells assessed as cell growth at 0.01 uM after 48 hrs by SRB assay relative to control; details: MDA-MB-435, 48 h, read-out: Activity
[8] = read-out: LC50 (the source's name)
[9] = read-out: pLC50 (the source's name) (converted)

## COc1ccc2c(c1)CCc1n[nH]c(-c3cc(OC)c(OC)c(OC)c3)c1-2
RXF 393 [1]
  growth at 10 µM: -6%
U-251; read-out: GI50
  GI50: < 0.01 µM
U-251; [8]
  CC50: 51.3 µM
U-251; read-out: TGI
  TGI: 11.5 µM
U-251; read-out: pGI50 (converted)
  GI50: < 0.01 µM
U-251; [9]
  CC50: 51.3 µM
U-251; read-out: pTGI (converted)
  TGI: 11.5 µM
RPMI-8226
  growth at 0.01 µM: 45%
T47D
  growth at 100 µM: -72%
PC-3 [2]
  growth at 10 µM: 14%
PC-3 [3]
  growth at 1 µM: 18%
NCI-H23
  growth at 10 µM: -6%
NCI-H460
  growth at 0.1 µM: 2%
SK-MEL-2
  growth at 100 µM: -51%
EKVX
  growth at 0.01 µM: 48%
786-0
  growth at 100 µM: -48%
CAKI-1
  growth at 0.1 µM: 23%
HT-29
  growth at 1 µM: 5%
HOP-92 [4]
  growth at 1 µM: 27%
HCT-116
  growth at 100 µM: -66%
MCF7
  growth at 10 µM: 5%
SR
  growth at 0.1 µM: 18%
A549
  growth at 100 µM: -26%
NCI-H322M
  growth at 10 µM: 31%
SK-OV-3; read-out: GI50
  GI50: < 0.01 µM
SK-OV-3; [8]
  CC50: > 100 µM
SK-OV-3; read-out: TGI
  TGI: < 0.01 µM
SK-OV-3; read-out: pGI50 (converted)
  GI50: < 0.01 µM
SK-OV-3; [9]
  CC50: > 100 µM
SK-OV-3; read-out: pTGI
  TGI: < 0.01 µM
OVCAR-3
  growth at 100 µM: -59%
RXF 393 [5]
  growth at 100 µM: -68%
A498
  growth at 10 µM: -17%
SK-MEL-5
  growth at 0.1 µM: -26%
BT-549; read-out: GI50
  GI50: < 0.01 µM
BT-549; read-out: LC50
  LC50 (50% lethal concentration): > 100 µM
BT-549; read-out: TGI
  TGI: 10.6 µM
BT-549; read-out: pGI50 (converted)
  GI50: < 0.01 µM
BT-549; read-out: pLC50 (converted)
  LC50 (50% lethal concentration): > 100 µM
BT-549; read-out: pTGI (converted)
  TGI: 10.7 µM
KM12
  growth at 100 µM: -78%
IGROV-1
  growth at 0.1 µM: 29%
MDA-MB-468
  growth at 0.01 µM: -7%
RXF 393 [6]
  growth at 0.1 µM: -2%
MDA-MB-231; read-out: GI50
  GI50: < 0.01 µM
MDA-MB-231; read-out: LC50
  LC50 (concentration killing 50% of cells): > 100 µM
MDA-MB-231; read-out: TGI
  TGI: 44.8 µM
MDA-MB-231; read-out: pGI50 (converted)
  GI50: < 0.01 µM
MDA-MB-231; read-out: pLC50 (converted)
  LC50 (concentration killing 50% of cells): > 100 µM
MDA-MB-231; read-out: pTGI (converted)
  TGI: 44.7 µM
HOP-92 [7]
  growth at 0.01 µM: 39%
MDA-MB-435
  growth at 0.01 µM: -45%
